Among the data in patent publication US10626095B2, “Cyanotriazole compounds” (OTSUKA PHARMACEUTICAL CO., LTD., priority 2013, dated 2020) are EC50 values, retold here.

In this test the test system is NaCT-CHO (CHO cells stably expressing human NaCT). The test can be described thus: Assay of the citric acid cycle activation ([1,5-14C]-citric acid, diffusion of [14C]-CO2). The test is classed as cell-based. The settings on record: 1 hour incubation at 37° C. with [1,5-14C]-citric acid. An excerpt:
Assay of the Citric Acid Cycle Activation
(1) Construction of the Human NaCT Expression Vector pME-NaCT
The human NaCT (also called SLC13A5 or NAC2; GenBank accession No. NM_177550) cDNA was inserted into the EcoRI-NotI site of the mammalian expression vector pME18S (GenBank accession No. AB009864) and purified by Qiagen Plasmid Maxi Kit (Qiagen).
(2) Establishment of NaCT Stably Expressed CHO Cells
The pME-NaCT vector and the pcDNA™3.1 vector containing the neomycin resistance gene (Life Technologies) were co-transfected into CHO-K1 cells (ATCC) by Lipofectaimine 2000 reagent (Life Technologies). The next day the cells were subcultured in Nutrient Mixture F-12 Ham (Sigma-Aldrich) with 10% FBS (Biological Industries), and Geneticin (Life Technologies) was added (final concentration 350 μg/mL) in the following day. CHO cell clones stably expressing NaCT were given by neomycin resistant cell screening and limiting dilution method. Established cell lines (named NaCT-CHO) were also maintained in culture medium (Nutrient Mixture F-12 Ham) with 10% FBS and 350 μg/mL Geneticin. For control cells (named pME-CHO) preparation, the naive pME18S were also transfected instead of pME-NaCT into CHO-K1 cells.
(3) Assay of the Citric Acid Cycle Activation
NaCT-CHO and pME-CHO were plated at 20,000 cells/well into white CulturPlate™-96 (PerkinElmer) two days before the assay. Prior to assay incubation, the cultured plates were washed twice with washing buffer, 10 mM HEPES-Tris(pH7.4) containing 140 mM choline chloride, 2 mM KCl, 1 mM CaCl2, 1 mM MgCl2. The compounds to be tested were dissolved and diluted in DMSO (Wako Pure Chemical industries) to 1,000 times of a final concentration, and further diluted to two times as high as the final concentration in assay buffer, 10 mM HEPES-Tris(pH7.4) containing 140 mM NaCl, 2 mM KCl, 1 mM CaCl2, 1 mM MgCl2. The range of final concentrations was properly determined based on the test compounds activity. Each 25 μL compound solution was added to well and subsequently 25 μL radio-labeled substrate solution containing 0.4 mM (0.4 MBq/mL) [1,5-^14C]-citric acid (PerkinElmer) in the assay buffer was added. After 1 hour incubation at 37° C., the reaction mixture was discarded and washed three times with pre-chilled washing buffer and then 0.1 mL MicroScint 20 (PerkinElmer) was added to well. The plate was sealed with TopSeal-A (PerkinElmer) and the radioactivity was measured using a TopCount (PerkinElmer). Non-specific activity (NS cpm) and total radio activity (Total cpm) were determined by counting of pME-CHO plated wells and NaCT-CHO plated wells without compounds, respectively. Diffusion of [^14C]—CO2 was able to be estimated from residual radioactivity (R cpm) by an equation (Total−R)/(Total−NS)×100(%). The difference of Total and R was disappeared in the presence of 0.1 μM antimycin A. EC50 values were calculated by regression analysis using SAS Statistical Analysis System (SAS institute Japan Ltd. Release 9.1).

As usually defined, the EC50 is the concentration that produces a half-maximal response. A higher EC50 goes with a less potent agent. For `N#Cc1[nH]nnc1-c1cccc(OCc2cc3ccccc3o2)c1` [Example 59, 5-[3-(benzofuran-2-ylmethoxy)-phenyl]-3H-[1,2,3]triazole-4-carbonitrile], the EC50 turned out to be 500 nM. This lies in the sub-micromolar range. In the case of `N#Cc1[nH]nnc1-c1ccc(C(F)(F)F)c(/C=C/c2cccc(C(F)(F)F)c2)c1` [Example 46, 5-{4-trifluoromethyl-3-[(E)-2-(3-trifluoromethyl-phenyl)-vinyl]-phenyl}-3H-[1,2,3]triazole-4-carbonitrile], the EC50 is 980 nM. With `N#Cc1[nH]nnc1-c1ccc(-c2ccc(Cl)cc2)o1` [Example 136, 5-[5-(4-chloro-phenyl)-furan-2-yl]-3H-[1,2,3]triazole-4-carbonitrile], the concentration for a half-maximal effect (EC50) was determined as 680 nM. The molecule `N#Cc1[nH]nnc1C1CCN(c2cc(C(F)(F)F)ccc2C(F)(F)F)CC1` [Example 144, 5-[1-(2,5-bis-trifluoromethyl-phenyl)-piperidin-4-yl]-3H-[1,2,3]triazole-4-carbonitrile] came in with an EC50 of 790 nM.

The molecule `CCCc1oc(-c2ccc(Cl)cc2)nc1-c1nn[nH]c1C#N` [Example 119, 5-[2-(4-chloro-phenyl)-5-propyl-oxazol-4-yl]-3H-[1,2,3]triazole-4-carbonitrile] registered an EC50 of 710 nM. This EC50 and that of the molecule before are within 1.5-fold of each other. For `CCc1sc(-c2ccc(C(F)(F)F)nc2)nc1-c1nn[nH]c1C#N` [Example 101, 5-[5-ethyl-2-(6-trifluoromethyl-pyridin-3-yl)-thiazol-4-yl]-3H-[1,2,3]triazole-4-carbonitrile] the value was 850 nM; for `N#Cc1[nH]nnc1-c1cc(Cl)ccc1/C=C/c1cccc(C(F)(F)F)c1` [Example 8, 5-{5-chloro-2-[(E)-2-(3-trifluoromethyl-phenyl)-vinyl]-phenyl}-3H-[1,2,3]triazole-4-carbonitrile], 290 nM; for `N#Cc1[nH]nnc1-c1csc(C23CC4CC(CC(C4)C2)C3)n1` [Example 88, 5-(2-(adamantan-1-yl)-thiazol-4-yl)-3H-[1,2,3]triazole-4-carbonitrile], 620 nM.

For `COc1ccc(-c2nn[nH]c2C#N)cc1-c1ccc(F)c(F)c1` [Example 32, 5-(3′,4′-difluoro-6-methoxy-biphenyl-3-yl)-3H-[1,2,3]triazole-4-carbonitrile], the half-maximal effective concentration (EC50) was 740 nM. The molecule `CCc1nc(-c2ccc(Cl)cc2)sc1-c1[nH]nnc1C#N` [Example 115, 5-[2-(4-chloro-phenyl)-4-ethyl-thiazol-5-yl]-1H-[1,2,3]triazole-4-carbonitrile] came in with an EC50 of 650 nM. This EC50 and that of the molecule before are within 1.5-fold of each other. The value for `N#Cc1[nH]nnc1-c1cccc(COCC2CCCCC2)c1` [Example 3, 5-(3-cyclohexylmethoxymethyl-phenyl)-3H-[1,2,3]triazole-4-carbonitrile] was 260 nM. For `N#Cc1[nH]nnc1-c1cccc(CCOc2ccc(C(F)(F)F)cn2)c1` [Example 66, 5-{3-[2-(5-trifluoromethyl-pyridin-2-yloxy)-ethyl]-phenyl}-3H-[1,2,3]triazole-4-carbonitrile] the value was 660 nM. For `N#Cc1[nH]nnc1-c1nc(-c2ccc(Cl)cc2)sc1-c1ccc(C(F)(F)F)cc1` [Example 107, 5-[2-(4-chloro-phenyl)-5-(4-trifluoromethyl-phenyl)-thiazol-4-yl]-3H-[1,2,3]triazole-4-carbonitrile] the value was 2560 nM.

The molecule `N#Cc1[nH]nnc1-c1cccc(-c2nc3cc(F)ccc3o2)c1` [Example 27, 5-[3-(5-fluoro-benzoxazol-2-yl)-phenyl]-3H-[1,2,3]triazole-4-carbonitrile] had a 50% effective concentration (EC50) of 890 nM. Compared with the last molecule, the EC50 is about 2.9-fold lower. Molecule `Cc1sc(-c2cccc(C(F)(F)F)c2)nc1-c1nn[nH]c1C#N` [Example 91, 5-[5-methyl-2-(3-trifluoromethyl-phenyl)-thiazol-4-yl]-3H-[1,2,3]triazole-4-carbonitrile] came in with an EC50 of 700 nM. For `N#Cc1[nH]nnc1-c1ccc(/C=C/c2cccc(C(F)(F)F)c2)s1` [Example 133, 5-{5-[(E)-2-(3-trifluoromethyl-phenyl)-vinyl]-thiophen-2-yl}-3H-[1,2,3]triazole-4-carbonitrile] the value was 190 nM; for `N#Cc1[nH]nnc1-c1ccc(-c2cccc(C(F)(F)F)c2)nc1` [Example 143, 5-[6-(3-trifluoromethyl-phenyl)-pyridin-3-yl]-3H-[1,2,3]triazole-4-carbonitrile], 1020 nM. The value for `N#Cc1[nH]nnc1-c1cnc(/C=C/c2cccc(C(F)(F)F)c2)s1` [Example 112, 5-{2-[(E)-2-(3-trifluoromethyl-phenyl)-vinyl]-thiazol-5-yl}-3H-[1,2,3]triazole-4-carbonitrile] was 790 nM; that for `CC(C)Cc1sc(-c2ccc(Cl)cc2)nc1-c1nn[nH]c1C#N` [Example 106, 5-[2-(4-chloro-phenyl)-5-isobutyl-thiazol-4-yl]-3H-[1,2,3]triazole-4-carbonitrile] was 840 nM.

As for `CCOc1ccc(/C=C/c2cccc(-c3nn[nH]c3C#N)c2)cc1` [Example 44, 5-{3-[(E)-2-(4-ethoxy-phenyl)-vinyl]-phenyl}-3H-[1,2,3]triazole-4-carbonitrile], a half-maximal response (EC50) required 690 nM. This EC50 and that of the molecule before are within 1.5-fold of each other.

As to `N#Cc1[nH]nnc1-c1ccc(-c2cccc(C(F)(F)F)c2)cc1` [Example 68, 5-(3′-trifluoromethyl-biphenyl-4-yl)-3H-[1,2,3]triazole-4-carbonitrile], the half-maximal effective concentration (EC50) was found to be 460 nM. The molecule `N#Cc1[nH]nnc1-c1cc(OCc2cc(C(F)(F)F)ccc2C(F)(F)F)cc(C(F)(F)F)c1` [Example 63, 5-[3-(2,5-bis-trifluoromethyl-benzyloxy)-5-trifluoromethyl-phenyl]-3H-[1,2,3]triazole-4-carbonitrile] yielded a concentration for a half-maximal effect (EC50) of 960 nM.

`COc1sc(-c2ccc(Cl)cc2)nc1-c1nn[nH]c1C#N` [Example 110, 5-[2-(4-chloro-phenyl)-5-methoxy-thiazol-4-yl]-3H-[1,2,3]triazole-4-carbonitrile]: the half-maximal effective concentration (EC50) was found to be 3230 nM. The molecule `Cc1cc(F)cc(-c2nn[nH]c2C#N)c1OCc1cc(F)cc(C(F)(F)F)c1` [Example 9, 5-[5-fluoro-2-(3-fluoro-5-trifluoromethyl-benzyloxy)-3-methyl-phenyl]-3H-[1,2,3]triazole-4-carbonitrile] yielded a 50% effective concentration (EC50) of 230 nM. The value for `N#Cc1[nH]nnc1-c1cc(Cc2ccc(F)cc2)cc(OC(F)(F)F)c1` [Example 34, 5-[3-(4-fluoro-benzyl)-5-trifluoromethoxy-phenyl]-3H-[1,2,3]triazole-4-carbonitrile] was 460 nM; that for `CC(Oc1cc(-c2nn[nH]c2C#N)cc(C(F)(F)F)c1)c1ccccc1` (stereo not shown) [Example 64, 5-[3-(1-phenyl-ethoxy)-5-trifluoromethyl-phenyl]-3H-[1,2,3]triazole-4-carbonitrile] was 240 nM. The value for `N#Cc1[nH]nnc1-c1ccc(Oc2cccc(C(F)(F)F)c2)s1` [Example 132, 5-[5-(3-trifluoromethyl-phenoxy)-thiophen-2-yl]-3H-[1,2,3]triazole-4-carbonitrile] was 320 nM. The value for `N#Cc1[nH]nnc1-c1cc(OCCCC(F)(F)F)cc(C(F)(F)F)c1` [Example 2, 5-[3-(4,4,4-trifluoro-butoxy)-5-trifluoromethyl-phenyl]-3H-[1,2,3]triazole-4-carbonitrile] was 280 nM; that for `CN(c1ccc(Cl)cc1)c1nc(-c2nn[nH]c2C#N)cs1` [Example 83, 5-{2-[N-(4-chloro-phenyl)-N-methyl-amino]-thiazol-4-yl}-3H-[1,2,3]triazole-4-carbonitrile] was 1080 nM; that for `CCOc1c(/C=C/c2cccc(C(F)(F)F)c2)cccc1-c1nn[nH]c1C#N` [Example 43, 5-{2-ethoxy-3-[(E)-2-(3-trifluoromethyl-phenyl)-vinyl]-phenyl}-3H-[1,2,3]triazole-4-carbonitrile] was 670 nM. For `N#Cc1[nH]nnc1-c1cc(OC2CCC2)cc(-c2ccc(C(F)(F)F)nc2)c1` [Example 19, 5-[3-cyclobutoxy-5-(6-trifluoromethyl-pyridin-3-yl)-phenyl]-3H-[1,2,3]triazole-4-carbonitrile], the EC50 was 530 nM.
